Data from patent US9943398B2, “Increasing survival of free tissue grafts and flaps using phosphodiesterase type 5 (PDE5) inhibitors” (New York University, priority 2012, dated 2018).

What was measured:
Assay type in all cases: in vivo, mice
[1] = test system: explanted fat grafts (Tie2/LacZ donor, wild type FVB recipient); experiment: Quantitative PCR of 2-day old explanted fat grafts after sildenafil pretreatment of donor tissue; conditions: qPCR
Experimental: (§1) To examine the effect of PDE5 inhibitor pretreatment of donor graft tissue on graft take and survival, transfer of syngeneic fat between Tie2/LacZ mice (donor) and wild type FVB mice (recipient) was performed. A schematic representation of the protocol is depicted in FIG. 1A. Since the transgenic mice express the lacZ gene in their blood vessels, donor and recipient vasculature can be independently visualized and assessed based on the presence or absence of lacZ gene expression.
Prior to harvesting the inguinal fat pads from 6-12 week old transgenic FVB Tie2/LacZ mice, the pads were infiltrated with small volumes of PBS (control) and 35 nM sildenafil citrate in PBS and allowed to dwell for 15-20 minutes. The pads were harvested, washed in PBS, and finely minced to simulate conditions of human harvest. The minced fat was centrifuged at 3000 rpm for 3 minutes and the aqueous and oil layers removed leaving the adipose layer for injection. The dorsum of syngeneic wildtype FVB mice was used as the recipient bed for the processed lipoaspirate, as previously described (Sultan et al., “Human Fat Grafting Alleviates Radiation Skin Damage in a Murine Model,” Plast Reconstr Surg 128:363-72 (2011) and Thanik et al., “A Murine Model for Studying Diffusely Injected Human Fat,” Plast Reconstr Surg 124:74-81 (2009), which are hereby incorporated by reference in their entirety). Autologous fat was infiltrated using a blunt tip cannula through a 2-mm caudal midline incision. The infiltration cannula was advanced and withdrawn in a fan like pattern in the dorsal subdermal plane of the mouse, to maintain an even layer over the entire dorsal surface.

fat grafts [2] = experiment: Vascular flux (Doppler) in grafted fat tissue after transplantation
Experimental: as §1
(§2) Prior to harvesting the inguinal fat pads from 6-12 week old transgenic FVB Tie2/LacZ mice, the pads were infiltrated with small volumes of PBS (control) and 35 nM sildenafil citrate in PBS and allowed to dwell for 15-20 minutes. The pads were harvested, washed in PBS, and finely minced to simulate conditions of human harvest. The minced fat was centrifuged at 3000 rpm for 3 minutes and the aqueous and oil layers removed leaving the adipose layer for injection. The dorsum of syngeneic wildtype FVB mice was used as the recipient bed for the processed lipoaspirate, as previously described (Sultan et al., “Human Fat Grafting Alleviates Radiation Skin Damage in a Murine Model,” Plast Reconstr Surg 128:363-72 (2011) and Thanik et al., “A Murine Model for Studying Diffusely Injected Human Fat,” Plast Reconstr Surg 124:74-81 (2009), which are hereby incorporated by reference in their entirety). […]

fat grafts [3] = experiment: Graft volume maintenance and graft survival analysis after fat transfer
Experimental: as §1, §2

fat grafts [4] = experiment: Graft weight retention of explanted fat grafts; conditions: 8 weeks post transplant
Experimental: as §1, §2

[5] = 2-day old explanted grafts, 35 nM sildenafil citrate pretreatment vs PBS/saline control
[6] = explanted tissue, sildenafil pretreatment vs saline control

SMILES: CCCc1nn(C)c2c(=O)nc(-c3cc(S(=O)(=O)N4CCN(C)CC4)ccc3OCC)[nH]c12 [sildenafil, 5-{2-Ethoxy-5-[(4-methyl-1-piperazinyl)sulfonyl]phenyl}-1-methyl-3-propyl-1,4-dihydro-7H-pyrazolo[4,3-d]pyrimidin-7-one 2-hydroxy-1,2,3-propanetricarboxylate (1:1)]
- LacZ expression (donor-derived endothelial cell function/viability) [1, 5]: increased
- PECAM-1 expression (donor-derived endothelial cell function/viability) [1, 5]: increased
- expression of the inflammatory gene SDF-1α [1, 6]: decreased
- expression of the inflammatory gene VCAM [1, 6]: decreased
- revascularization within the core of the graft (fat grafts [2]; 1 and 2 weeks post grafting, vs control): significant improvement in revascularization
- restoration of blood flow within the grafted tissues (vascular flux) (fat grafts [2]; first two weeks following transplantation, vs saline control): faster restoration of blood flow
- graft tissue volume after transfer (fat grafts [3]; over 12 weeks after transfer, vs saline treated grafts, which are resorbed quickly): maintained virtually all of its volume over time
- graft survival (fat grafts [3]; survival analysis vs saline-treated control grafts and devascularized (trypsin-inactivated) grafts): survive significantly longer
- enhanced graft retention (percent graft weight retention) compared to saline treated grafts (fat grafts [4]): > 2 fold
